Paper PMC7497253, “Structure‐Based Macrocyclization of Substrate Analogue NS2B‐NS3 Protease Inhibitors of Zika, West Nile and Dengue viruses” (Chemmedchem, 2020)
Where two headings read alike, the source gives them in different places. Starred links: 1 amine or outer side, 2 acyl side, 3 side chain; linkers in the order of their positions; H or OH if unused. Non-standard residues stand in square brackets, D forms with d. Residues, ends and D or L forms follow the SMILES beside them. dεLys(Nα-amidino) = N=C(N)N[C@H](CCCCN[*:1])C(=O)[*:2]; βAla = NCCC(=O)O

Experiments:
Assay type in all cases: biochemical
[1] = biological target: T1, bD4Pro (unlinked binary dengue-4 virus NS2B-NS3 protease) (Dengue virus type 4, UniProt Q2YHF2); assay: Enzyme kinetics with bD4Pro, substrate Benzoyl-Nle-Lys-Arg-Arg-AMC
T1 construct: The viral protease consists of the N‐terminal third of the nonstructural protein NS3; NS3 has to form a complex with its cofactor NS2B to achieve proteolytic activity; His6 (cleaved yes); made in house
T1 sequence (Q2YHF2 1475-1652 limits assumed): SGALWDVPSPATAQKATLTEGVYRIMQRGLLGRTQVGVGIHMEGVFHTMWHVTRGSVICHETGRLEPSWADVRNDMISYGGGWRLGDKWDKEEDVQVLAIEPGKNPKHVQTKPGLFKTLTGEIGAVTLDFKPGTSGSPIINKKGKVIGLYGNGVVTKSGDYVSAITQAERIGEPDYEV
T1 sequence (Q2YHF2 1397-1436 limits assumed): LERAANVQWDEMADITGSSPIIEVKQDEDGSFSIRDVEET
Description: Measurements with the dengue 4 virus protease construct (bD4Pro; expressed and purified by a similar methodology as described for bZiPro15 with slight modification of using Tobacco Etch Virus (TEV) protease instead of thrombin for His6‐tag cleavage) were performed in a Cytation 3 Mulitmode plate reader with λ ex at 380 nm and λ em at 460 nm. Assays were carried out as triplicate at 37 °C. Before measurement, the protease (final assay concentration 3 nM) was preincubated with varying concentrations of inhibitors in assay buffer (20 mM Tris pH 8.5, 10 % glycerol, 0.01 % Triton X‐100) for 1 h at room temperature in Corning black clear bottom 96‐well plates. The reaction was started by addition of the substrate Benzoyl‐Nle‐Lys‐Arg‐Arg‐AMC (final assay concentration 50 μM, K M=48.4 μM). Fluorescent readings were recorded at 1‐minute intervals over 10 minutes. The steady‐state rates v i in presence of inhibitor were calculated from the slopes of the progress curves using Graph Pad Prism. The v i values were fitted to Equation (2) as function of the inhibitor concentration [I] providing the IC50 values, where v 0 is the rate in absence of inhibitor and s a slope factor. The obtained IC50 values were finally converted into K i values by the Cheng‐Prusoff Equation (2).(2) vi=v0/1+I/IC50^s (3) Ki=IC50/1+S/KM

[2] = biological target: T2, WNV NS2B-NS3 protease (WNV-Pro) (West Nile virus, UniProt P06935); assay: Enzyme kinetics with the covalent WNV NS2B-NS3 construct, substrate Phac-Leu-Lys-Lys-Arg-AMC
T2 construct: NS3 has to form a complex with its cofactor NS2B to achieve proteolytic activity; The viral protease consists of the N‐terminal third of the nonstructural protein NS3
Description: (§1) Enzyme kinetics. Measurements with bZiPro15 and the covalent WNV NS2B‐NS3 construct^10 were performed at room temperature in black 96 well plates using a Fluoroskan Ascent® plate reader (Thermo Fisher Scientific, Vantaa, Finland) with λ ex at 355 nm and λ em at 460 nm. Each well contained 125 μL inhibitor dissolved in buffer (for bZiPro: 20 mM Tris×HCl pH 8.5, 2 mM DTT, 10 w/v glycerol and 0.01 w/v Triton X‐100;18 for WNV protease: 100 mM Tris×HCl pH 8.5, containing 32 w/v glycerol and 0.01 w/v Triton X‐10012) and 50 μL substrate Phac‐Leu‐Lys‐Lys‐Arg‐AMC12 (40 μM for bZiPro (10 μM in assay, K M=1.4 μM) and 400 μM for the WNV protease (100 μM in assay, K M=53 μM)). The measurements were started by addition of 25 μL enzyme solution (16 nM for bZiPro (2.0 nM in assay), and 64 nM for the WNV protease (8.0 nM in assay)). Data points were collected each 15 s over a period of 10 min using eight different inhibitor concentrations. […] The K i values and their standard deviation were obtained from at least three independent measurements.(1) vi=Vmax×[S]/KM1+[I]/Ki+[S]

[3] = biological target: T3, bZiPro (unlinked binary Zika virus NS2B-NS3 protease) (Zika virus, UniProt A0A024B7W1); assay: Enzyme kinetics with bZiPro, fluorogenic substrate Phac-Leu-Lys-Lys-Arg-AMC
T3 construct: The viral protease consists of the N‐terminal third of the nonstructural protein NS3; the NS2B construct ends at Glu96; His6 (cleaved yes); made in house
Description: as §1
The constants K M and V max were obtained from independent measurements with six different substrate concentrations in absence of inhibitor. For inhibitor 10 with bZiPro, additional measurements at three substrate concentrations (10, 5, and 2.5 μM in assay) were performed to obtain the Dixon plot shown in Figure 4.

[4] = K i bZiPro, mean±SD of at least three independent measurements, substrate 10 μM in assay, room temperature, pH 8.5
[5] = mean±SD of at least three independent measurements, 37 °C, IC50 converted into K i by Cheng-Prusoff, read-out: K i bD4Pro
[6] = mean±SD of at least three independent measurements, substrate 100 μM in assay, room temperature, pH 8.5, read-out: K i WNV-Pro
[7] = mean±SD of at least three independent measurements, substrate 10 μM in assay, room temperature, pH 8.5, read-out: K i bZiPro

T2 sequence (P06935 1424-1463): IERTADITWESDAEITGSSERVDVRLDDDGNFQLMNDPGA
T2 sequence (P06935 1502-1679): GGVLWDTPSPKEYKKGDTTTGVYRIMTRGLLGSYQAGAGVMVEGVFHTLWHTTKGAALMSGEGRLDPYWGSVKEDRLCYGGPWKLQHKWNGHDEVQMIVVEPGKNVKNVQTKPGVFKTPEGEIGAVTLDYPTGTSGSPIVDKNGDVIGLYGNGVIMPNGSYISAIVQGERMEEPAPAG
T3 sequence (A0A024B7W1 1503-1680 limits assumed): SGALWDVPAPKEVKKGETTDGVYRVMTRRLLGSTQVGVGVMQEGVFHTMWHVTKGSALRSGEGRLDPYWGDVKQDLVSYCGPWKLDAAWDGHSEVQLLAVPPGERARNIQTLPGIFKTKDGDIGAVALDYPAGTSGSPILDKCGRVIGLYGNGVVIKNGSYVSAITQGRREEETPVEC
T3 sequence (A0A024B7W1 1425-1464 limits assumed): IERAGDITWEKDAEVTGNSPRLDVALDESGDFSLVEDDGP

| Compound | Ki [1] [µM] | Ki [2] [µM] | Ki [3, 4] [µM] | Ki [1, 5] [µM] | Ki [2, 6] [µM] | Ki [3, 7] [µM] | Ki ([3]; K i against bZiPro / ZIKV protease, value given in running text) [µM] |
| --- | --- | --- | --- | --- | --- | --- | --- |
| C[C@@H]1NC(=O)[C@H](NC(=N)N)CCCCNC(=O)[C@H](CCCCN)NC(=O)[C@H](CCCCN)NC(=O)Cc2cccc(c2)CNC1=O [Inhibitor 15] | 3.6 ± 0.38 | 1.39 ± 0.32 | 0.0182 ± 0.0051 |  |  |  |  |
| NCCCC[C@@H]1NC(=O)Cc2ccc(cc2)CNC(=O)CCCNC(=O)[C@H](N)CCCCNC(=O)[C@H](CCCCN)NC1=O [Inhibitor 6] |  |  |  | 94.5 ± 11.6 | 68.1 ± 5 | 24.7 ± 7.2 |  |
| N=C(N)N[C@H]1CCCNC(=O)[C@H](CCCCN)NC(=O)[C@H](CCCCN)NC(=O)Cc2ccc(cc2)CNC(=O)CCCNC1=O [Inhibitor 3] | 117 ± 5 | 27.8 ± 4.4 | 0.846 ± 0.111 |  |  |  |  |
| N=C(N)N[C@@H]1CCCCNC(=O)[C@H](CCCCN)NC(=O)[C@H](CCCCN)NC(=O)CNC(=O)CNC(=O)CCNC1=O [Inhibitor 28] (cyclo([βAla]GGKK[dεLys(Nα-amidino)])) |  |  |  | 2.72 ± 0.19 | 0.974 ± 0.134 | 0.0128 ± 0.0005 |  |
| N=C(N)N[C@@H]1CCCNC(=O)[C@H](CCCCN)NC(=O)[C@H](CCCCN)NC(=O)Cc2ccc(cc2)CNC(=O)CCCNC1=O [Inhibitor 5] | 60.5 ± 5.7 | 22 ± 4 | 3.61 ± 1.33 |  |  |  |  |
| NCCCC[C@@H]1NC(=O)Cc2cccc(c2)CNC(=O)CNC(=O)[C@H](NC(N)=O)CCCCNC(=O)[C@H](CCCCN)NC1=O [Inhibitor 21] | 135 | 68 | 12 |  |  |  |  |
| CC(=O)NCc1cccc(CC(=O)N[C@@H](CCCCN)C(=O)N[C@@H](CCCCN)C(=O)NCCCCCNC(=N)N)c1 [Inhibitor 32] | 18.1 ± 1.2 | 4.94 ± 0.53 | 0.0882 ± 0.0038 |  |  |  |  |
| N=C(N)N[C@@H]1CCCCNC(=O)[C@H](CCCCN)NC(=O)[C@H](CCCCN)NC(=O)Cc2cccc(c2)CNC(=O)CCNC1=O [Inhibitor 9] | 0.182 ± 0.005 | 0.374 ± 0.044 | 0.00388 ± 0.00081 |  |  |  |  |
| N=C(N)N[C@H]1CCCCNC(=O)[C@H](CCCCN)NC(=O)[C@H](CCCCN)NC(=O)Cc2ccc(cc2)CNC(=O)CCCNC1=O [Inhibitor 2] | 11 ± 1 | 6.3 ± 0.49 | 0.0918 ± 0.006 |  |  |  |  |
| CC(=O)NCc1cccc(CC(=O)N[C@@H](CCCCN)C(=O)N[C@@H](CCCCN)C(=O)NCCCC[C@@H](NC(=N)N)C(N)=O)c1 [Inhibitor 31] | 1.21 ± 0.09 | 1.48 ± 0.1 | 0.00948 ± 0.00061 |  |  |  |  |
| N=C(N)N[C@@H]1CCCCNC(=O)[C@H](CCCCN)NC(=O)[C@H](CCCCN)NC(=O)CCCNC(=O)CNC1=O [Inhibitor 22] | 6.09 ± 0.47 | 6.7 ± 0.52 | 0.124 ± 0.008 |  |  |  |  |
| N=C(N)N[C@@H]1CCCCNC(=O)[C@H](CCCCN)NC(=O)[C@H](CCCCN)NC(=O)Cc2ccc(cc2)CNC(=O)CCCNC1=O [Inhibitor 4] | 4.73 ± 0.5 | 4.97 ± 0.5 | 0.0701 ± 0.0092 |  |  |  |  |
| N=C(N)N[C@H]1CC[C@H](CNC(=O)[C@H](CCCCN)NC(=O)[C@H](CCCCN)NC(=O)Cc2ccc(Cl)c(Cl)c2)CC1 [Inhibitor 1, 3,4‐dichloro‐Phac‐Lys‐Lys‐GCMA, reference compound] |  |  |  |  |  |  | 0.014 |
| CC(C)[C@H]1NC(=O)[C@H](NC(=N)N)CCCCNC(=O)[C@H](CCCCN)NC(=O)[C@H](CCCCN)NC(=O)Cc2cccc(c2)CNC1=O [Inhibitor 18] | 0.486 ± 0.027 | 0.439 ± 0.028 | 0.00774 ± 0.00066 |  |  |  |  |
